Measurements as given in patent publication US6894068B2, “Substituted benzimidazoles as non-nucleoside inhibitors of reverse transcriptase” (The United States of America as represented by the …, priority 1997, dated 2005).
Where two headings read alike, the source gives them in different places.

Assays:
HIV-1 isolate K103N = experiment: Cytopathic cell killing assay, MT-4 cells, isolate K103N; type: cell-based; conditions: cytopathic cell killing assay
Source text: (§1) The various HIV isolates tested in the Figures are those corresponding to wild-type virus (NL4-3) and the other strains listed by their RT mutations. The three 4×AZT isolates included in the Figures represent AZT drug-resistant variants. For example, the 4×AZT/L100I isolate has five mutations: four mutations confer increased resistance to AZT, and the other mutation is located within the NNRTI binding pocket. TZB and nevir. (nevirapine) are two well-known NNRTIs, included in this experiment for comparison purposes.
(§2) In this Example, the antiviral and cellular toxicity of NNRTIs was investigated, using the cytopathic cell killing assay described by Yang (Yang et al., “Characteristics of a Group of Non-nucleoside Reverse Transcriptase Inhibitors with Structural Diversity and Potent Anti-Human Immunodeficiency Virus Activity,” Leukemia 9:S75-S85 [1995]). Briefly, in this method cells (e.g., the CEM-SS cell line, available from the NIAID AIDS Research and Reference Program [ARRRP]) were seeded at a density of 5×10^3 cells/well, into the wells of a 96-well microtiter plate. The cells were then infected with HIV virus (either mutant or WT), at a multiplicity of infection (MOI) previously determined to provide complete cell killing by 6 days of culture post-infection (e.g., MOI of 0.01-0.05). Each of the HIV isolates was pre-titered to induce equivalent levels of infection based on cell killing or virus production, prior to their use in these assays. A range of test compound concentrations was added to the wells in triplicate (e.g., serial half-log dilutions) to evaluate inhibition of HIV infection. Controls for each assay included drug controls (drug colorimetric control wells), drug cytotoxicity control wells (cells with drug), virus control wells (cells with virus), and cell viability controls (cells only). Positive control drugs (e.g. AZT and ddC) were also run in parallel.
(§3) After six days of incubation at 37° C., cell viability was determined spectrophotometrically at 450 nm for each well, using the metabolic reduction of XTT to a soluble colored formazan. (See, Gartner and Popovic, “Virus Isolation and Production, in Aldovini and Walker (eds.), Techniques in HIV Research, Stockton Press, NY, pp. […] [1991]; and Nara and Fischinger, “Quantitative Infectivity Assay for HIV-1 and HIV-2, ” Nature 332:469-470 [1988]).
(§4) The in vitro therapeutic index (TI50) was defined as the fold-difference between the EC50 and IC50. The results for the various compounds are included in FIGS. 8 and 19.

HIV-1 NL4-3 (WT) = experiment: Cytopathic cell killing assay, MT-4 cells, isolate NL4-3 (WT); type: cell-based; conditions: Human immunodeficiency virus 1, NL43, MT4, read-out: EC50, isolate NL4-3, Table 9; MT-4 cells
Source text: as §1, §2, §3, §4

HIV-1 isolate Y188C = experiment: Cytopathic cell killing assay, MT-4 cells, isolate Y188C; type: cell-based; conditions: Human immunodeficiency virus 1, MT4, read-out: EC50, isolate Y188C, Table 9; MT-4 cells
Source text: as §1, §2, §3, §4

HIV-1 isolate L74V = experiment: Cytopathic cell killing assay, MT-4 cells, isolate L74V; type: cell-based; conditions: Human immunodeficiency virus 1, MT4, read-out: EC50, isolate L74V, Table 9; MT-4 cells
Source text: as §1, §2, §3, §4

[1] = test system: HIV-1 isolate 4xAZT/L100I; experiment: Cytopathic cell killing assay, MT-4 cells, isolate 4xAZT/L100I; type: cell-based; conditions: read-out: EC50, isolate 4XAZT/L1001; Table 9; MT-4 cells
Protocol: (§5) The various HIV isolates tested in the Figures are those corresponding to wild-type virus (NL4-3) and the other strains listed by their RT mutations. The three 4×AZT isolates included in the Figures represent AZT drug-resistant variants.
(§6) Briefly, in this method cells (e.g., the CEM-SS cell line, available from the NIAID AIDS Research and Reference Program [ARRRP]) were seeded at a density of 5×10^3 cells/well, into the wells of a 96-well microtiter plate. The cells were then infected with HIV virus (either mutant or WT), at a multiplicity of infection (MOI) previously determined to provide complete cell killing by 6 days of culture post-infection (e.g., MOI of 0.01-0.05). Each of the HIV isolates was pre-titered to induce equivalent levels of infection based on cell killing or virus production, prior to their use in these assays. A range of test compound concentrations was added to the wells in triplicate (e.g., serial half-log dilutions) to evaluate inhibition of HIV infection. Controls for each assay included drug controls (drug colorimetric control wells), drug cytotoxicity control wells (cells with drug), virus control wells (cells with virus), and cell viability controls (cells only). Positive control drugs (e.g. AZT and ddC) were also run in parallel.
as §3
The in vitro therapeutic index (TI50) was defined as the fold-difference between the EC50 and IC50.

HIV-1 WT RT = HIV-1 WT RT (Human immunodeficiency virus type 1 group M subtype B, UniProt P03366); experiment: biochemical; type: biochemical
HIV-1 WT virus (NL4-3) = experiment: microbe, parasite or virus in culture; type: cell-based; conditions: for EC50: Human immunodeficiency virus 1, NL43, CEM-SS, WT, read-out: EC50
Protocol: Evaluation of these compounds for the inhibition of HIV-1 was determined as the fifty percent cell culture inhibitory concentration (CIC50) in CEMSS cell culture with WT virus (NL4-3).
as §2, §3, §4

[2] = test system: WT and HIV-1 variants containing amino acid substitutions in RT; type: cell-based; conditions: cytopathic cell killing assay, NNRTI-resistant HIV isolates
Source text: as §5, with “In these Tables, antiviral data are reported as the quantity of drug in μM required to reduce cell killing or virus production by 50% (EC50). The various” for “The various”
as §6, §3
Antiviral and toxicity data were reported as the quantity of drug required to inhibit 50% of virus-induced cell killing or virus production (EC50), and the quantity of drug required to […] (IC50). The in vitro therapeutic index (TI50) was defined as the fold-difference between the EC50 and IC50.

HIV-1 isolate A98G = experiment: Cytopathic cell killing assay, MT-4 cells, isolate A98G; type: cell-based; conditions: Human immunodeficiency virus 1, MT4, read-out: EC50, isolate A98G, Table 8; MT-4 cells
Source text: as §1, §2, §3, §4

HIV-1 isolate Y188H = experiment: Cytopathic cell killing assay, isolate Y188H; type: cell-based; conditions: Human immunodeficiency virus 1, read-out: EC50, isolate Y188H
Source text: as §1, §2, §3, §4

[3] = Table 7, drug concentration required to reduce cell killing or virus production by 50%

| Compound | activity against K103N, result in words (HIV-1 isolate K103N) | EC50 (HIV-1 NL4-3 (WT)) [nM] | EC50 (HIV-1 isolate Y188C) [nM] | EC50 (HIV-1 isolate L74V) [nM] | EC50 [1] [nM] | IC50 (HIV-1 WT RT) [nM] | % inhibn (1 μM) (HIV-1 WT RT; Table 7, 1 μM drug, WT HIV-1 RT) [%] | melting point [°C] | EC50 (HIV-1 WT virus (NL4-3); [3]) [nM] | EC50 (HIV-1 WT virus (NL4-3); text b130, cytopathic cell killing assay) [nM] | fold more potent than the 4-methyl or 4-amino compounds (EC50) (HIV-1 WT virus (NL4-3); cytopathic cell killing assay) [fold] | cross-resistance profile, result in words ([2]; listed as N-methyl acetamido) | cross-resistance profile, result in words ([2]; listed as N-methylacetamido) | EC50 (HIV-1 isolate A98G) [nM] | EC50 (HIV-1 isolate Y188H) [nM] |
| --- | --- | --- | --- | --- | --- | --- | --- | --- | --- | --- | --- | --- | --- | --- | --- |
| Fc1cccc(F)c1C1SCc2nc3ccccc3n21 (centres unmarked) [TZB, 1-(2,6-difluorophenyl)-1H,3H-thiazolo[3,4-a]benzimidazole, reference compound] | ineffective | 1000 | > 20000 | 800 | 1100 | – | – | – | – | – | – | – | – | – | – |
| CC(=O)N(C)c1cccc2c1nc(-c1c(F)cccc1F)n2Cc1c(F)cccc1F [Compound 5011, 1-(2,6-difluorobenzyl)-2-(2,6-difluorophenyl)-4-(N-methylacetamido)benzimidazole] | – | – | – | – | – | 320 | 77 | 155 to 156 | 20 | 20 | 20 | inhibit HIV-1 better than TZB | equal or better against the various variants than nevirapine | 100 | – |
| O=[N+]([O-])c1cccc2c1nc(-c1c(F)cccc1F)n2Cc1c(F)cccc1F [Compound 3100, 1-(2,6-difluorobenzyl)-2-(2,6-difluorophenyl)-4-nitrobenzimidazole] | – | – | – | – | – | – | – | 169 | 2400 | – | – | – | – | – | > 50000 |
